This test deals with 128128-338-R-J1-PDC spheroids, viability % test/control. As to the kind of experiment: Anticancer human tumor 128128-338-R-J1-PDC patient-derived melanoma cell line growth inhibition [TAK]. The note with it: spheroids with HUVEC and MSC; for viability, T/C: stronger effect = lower value. From the text:
Combinatorial screen of targeted agents with TAK-243 and ipatasertib in multi-cell type tumor spheroids
A high-throughput screen of multi-cell type tumor spheroids was designed to identify active combinations of targeted small molecules and TAK-243 or ipatasertib. Complex spheroids include a stromal component modeled by human endothelial cells (HUVEC) and fibroblasts modeled by human mesenchymal stem cells (MSCs). The concentration ranges selected for each drug and investigational agent were based upon clinically achievable concentrations if the clinical Cmax of the agent was known.
Compounds. The drugs and investigational agents: TAK-243 (785004), ipatasertib (767898), everolimus (733504), selumetinib (741078), bortezomib (756655), trametinib (758246), ixazomib (758254), vemurafenib (761431), dabrafenib (764134), sapanisertib (764658), alpelisib (765974), and copanlisib (816437), were obtained from the National Cancer Institute (NCI) Developmental Therapeutics Program Chemical Repository. The FDA-approved anticancer drug set is available from the NCI Developmental Therapeutics Program. […] The stock solutions were prepared in dimethyl sulfoxide (DMSO, Sigma-Aldrich, St. Louis, MO, cat. D2650) at 800-fold the tested concentration and stored at -70 degrees C prior to their use. All drugs and investigational agents were tested over a range starting from a high concentration at or near the clinical Cmax and decreasing in half-log increments. If the clinical Cmax for an agent had not been determined, the highest concentration tested was 10 microM.
NCI60 Cell Culture. NCI60 cell lines were obtained from the NCI Developmental Therapeutics Program Tumor Repository. For each lot of cells, the Repository performed Applied Biosystems AmpFLSTR Identifiler testing with PCR amplification to confirm consistency with the published Identifier STR profile for each cell line. Cells were kept in continuous culture for no more than 20 passages. The optimal seeding densities for each of the cell lines at each time point assessed were determined prior to performing the concentration response studies. Briefly, the NCI60 human tumor lines were grown as monolayers in RPMI 1640 medium supplemented with 10% FBS and 2 mmol/L L-glutamine.
An additional 2 lines were from the NCI60 cell line panel including melanomas, MALME-3M and SK-MEL-2. Pooled donor human umbilical vein endothelial cells (HUVEC, Lonza, cat. CC-2519) and human mesenchymal stem cells (hMSC, Lonza, cat. PT-2501) were purchased from Lonza (Walkersville, MD).
PDMR cell lines were grown in complete medium (DC medium): Dulbecco's modified Eagle's medium (DMEM)/F12 supplemented with 5% fetal bovine serum (FBS), 2 mM L-glutamine, 100 U/mL penicillin and 100 µg/ml streptomycin, 0.4 µg/ml hydrocortisone, 10 ng/ml epidermal growth factor (EGF) recombinant human protein, 24 µg/mL adenine, and 0.1 mg/mL primocin. During culture from frozen stock vials, PDMR cells were cultured in the same medium containing 10 µM Y-27632 (see Table 3). The PDCs were cultured in complete DMEM/F12 media without 10 microM Y-27632 dihydrochloride for at least two passages prior to the screen. The pooled donor HUVEC and hMSC were cultured in endothelial cell growth medium 2 (PromoCell, Heidelberg, Germany, cat. C-22011) and mesenchymal stem cell growth medium 2 (PromoCell, cat. C-28009), respectively. For all experiments, HUVEC and hMSC were used at passages </=5.
For the pre-screen, cell seeding densities were determined from a titration spanning the range from 5,000 to 313 cells per well. The mct-spheroids including 60% malignant cells, 25% HUVEC and 15% MSC dispensed as a mixture into U-bottom Ultra-Low Attachment 384-well plates (Corning, NY)
High-throughput Drug Combination Screening.
Prior to their inoculation into 384-well plates, malignant cells, HUVEC, and hMSC were removed from T flasks using TrypLE express (Thermo Fisher Scientific, cat. 12605036) and harvested by centrifugation for 5 min at 233 x g. […]

“And” between values parts separate entries of the source, which are not always exact repeats. Identical values can stand only once. Bounds are passed on as bounds.

For orientation: viability, T/C means the ratio of treated to control. As a reminder, the IC50 is the concentration needed to halve the response being measured.
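Further: spheroids exposed to compounds for 7 days.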
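Wherever viability, T/C is given: 100% = DMSO vehicle wells.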

Regarding `CC(C)CC(NC(=O)C(Cc1ccccc1)NC(=O)c1cnccn1)B(O)O` (stereo unspecified), the viability, T/C was 107% and 105% (compound 31.6 pM); 108% and 96.7% (compound 0.0001 µM); 99.3% and 93% (compound 0.000316 µM); 102% and 90.6% (compound 0.001 µM); 6.95% and 5.71% (compound 0.00316 µM); 0.2% and 0.52% (compound 0.01 µM). The IC50 (curve of compound) was 1.88 nM and 1.73 nM.

On to `CC(C)CC(NC(=O)CNC(=O)c1cc(Cl)ccc1Cl)B1OC(=O)CC(CC(=O)O)(C(=O)O)O1` (stereo unspecified), for which the viability, T/C by setting is: (compound 0.000316 µM) 102% and 104%; (compound 0.001 µM) 95.7% and 102%; (compound 0.00316 µM) 102% and 99%; (compound 0.01 µM) 39.4% and 38.7%; (compound 0.0316 µM) 3.88% and 2.92%; (compound 0.1 µM) 0.22% and 0.2%. Moreover, the IC50 (curve of compound) is 8.17 nM and 8.06 nM.

Turning to `COc1c(OCCCN2CCOCC2)ccc2c3n(c(=NC(=O)c4cnc(N)nc4)nc12)CCN3` + CC(C)NCC(C(=O)N1CCN(c2ncnc3c2C(C)CC3O)CC1)c1ccc(Cl)cc1, the IC50 (curve of first compound, second compound 0.3 µM) came to 160 nM; the IC50 (curve of first compound, second compound 0.949 µM) was determined as 154 nM; the IC50 (curve of first compound, second compound 3 µM) was determined as 92.5 nM; the half-inhibitory concentration (IC50) (curve of first compound, second compound 9.49 µM) turned out to be 47.6 nM; the IC50 (curve of first compound, second compound 30 µM) was < 3.16 nM. In addition, the viability, T/C was 99.3% (second compound 0.3 µM, first compound 0.00316 µM); 103% (second compound 0.3 µM, first compound 0.01 µM); 85.7% (second compound 0.3 µM, first compound 0.0316 µM); 71.9% (second compound 0.3 µM, first compound 0.1 µM); 19.8% (second compound 0.3 µM, first compound 0.316 µM); 10.2% (second compound 0.3 µM, first compound 1 µM). For the same compound, the viability, T/C is 93.4% (second compound 0.949 µM, first compound 0.00316 µM); 107% (second compound 0.949 µM, first compound 0.01 µM); 90.3% (second compound 0.949 µM, first compound 0.0316 µM); 68.8% (second compound 0.949 µM, first compound 0.1 µM); 19.5% (second compound 0.949 µM, first compound 0.316 µM); 6.65% (second compound 0.949 µM, first compound 1 µM). Also, the viability, T/C runs as follows: (second compound 3 µM, first compound 0.00316 µM) 90.8%; (second compound 3 µM, first compound 0.01 µM) 88.3%; (second compound 3 µM, first compound 0.0316 µM) 77.7%; (second compound 3 µM, first compound 0.1 µM) 47.3%; (second compound 3 µM, first compound 0.316 µM) 19.3%; (second compound 3 µM, first compound 1 µM) 6.49%. In addition, the viability, T/C is 62% (second compound 9.49 µM, first compound 0.00316 µM); 74.2% (second compound 9.49 µM, first compound 0.01 µM); 57.5% (second compound 9.49 µM, first compound 0.0316 µM); 33.3% (second compound 9.49 µM, first compound 0.1 µM); 11.9% (second compound 9.49 µM, first compound 0.316 µM); 8.21% (second compound 9.49 µM, first compound 1 µM). For the same compound, the viability, T/C runs as follows: (second compound 30 µM, first compound 0.00316 µM) 19.5%; (second compound 30 µM, first compound 0.01 µM) 19.5%; (second compound 30 µM, first compound 0.0316 µM) 13.6%; (second compound 30 µM, first compound 0.1 µM) 8.31%; (second compound 30 µM, first compound 0.316 µM) 1.28%; (second compound 30 µM, first compound 1 µM) 0.56%.

Consider `CC(C)(C)c1nc(-c2cccc(NS(=O)(=O)c3c(F)cccc3F)c2F)c(-c2ccnc(N)n2)s1`, for which the viability, T/C is 61.1% and 60.1% (compound 0.0316 µM); 23.9% and 24% (compound 0.1 µM); 4.21% and 5.44% (compound 0.316 µM); 2.39% and 2.26% (compound 1 µM); 2.82% and 2.69% (compound 3.16 µM); 17.2% and 16.2% (compound 10 µM). For the setting “curve of compound”, the IC50 was 44.7 nM and 43.6 nM.

(Values after PubChem BioAssay AID2060362 (Molecular Pharmacology Branch, DTP, NCI, 2025).)
